# Test results: US20090239841A1, “Diaryl Ureas as CB1 Antagonists” (priority 2004, published 2009)
# pIC50: −log10 of the molar value.
# Biological target: T1, hCB1 (Homo sapiens, UniProt P21554)
# T1 construct: made in house; host or cells: Sf9 insect cells (baculovirus), P2 membranes
# Assay: Agonist-induced GTP binding (GTPγ35S) assay at CB1, Example 8
# Type: biochemical
# Conditions: IC50 at CB1, determined as described in Example 8; read-out: IC50
# How it was run: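 Antagonism read as inhibition of 1 nM CP55,940-stimulated GTPγ35S ([…]) binding, compounds at 10^−10 to 10^−5 M. Baculovirus-infected Sf9 membranes bearing hCB1 plus G-protein subunits, 60 min room-temperature incubation with 5 μM GDP. Filtration and scintillation counting; data as percent over basal.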
# T1 sequence (P21554 whole entry): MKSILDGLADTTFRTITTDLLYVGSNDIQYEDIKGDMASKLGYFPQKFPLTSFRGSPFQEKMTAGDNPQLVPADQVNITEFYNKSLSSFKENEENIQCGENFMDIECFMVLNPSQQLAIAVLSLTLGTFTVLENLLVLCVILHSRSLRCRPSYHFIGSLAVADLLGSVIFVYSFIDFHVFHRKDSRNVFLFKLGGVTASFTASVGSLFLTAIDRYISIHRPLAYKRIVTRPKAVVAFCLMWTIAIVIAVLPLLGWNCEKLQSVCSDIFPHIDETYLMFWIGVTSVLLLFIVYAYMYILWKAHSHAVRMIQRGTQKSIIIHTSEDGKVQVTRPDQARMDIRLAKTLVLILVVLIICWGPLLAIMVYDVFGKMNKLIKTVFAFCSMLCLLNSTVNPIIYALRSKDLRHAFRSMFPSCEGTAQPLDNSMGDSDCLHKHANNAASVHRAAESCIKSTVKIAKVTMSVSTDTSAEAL
row,Compound,pIC50
1,"CCOc1ccc(NC(=O)Nc2ccc(C)c(F)c2)cc1 [Compound 616, 1-(4-ethoxyphenyl)-3-(3-fluoro-4-methylphenyl)urea]",> 5.70
2,"Cc1ccc(NC(=O)Nc2cccc(OC(F)F)c2)cc1 [Compound 370, 1-[3-(difluoromethoxy)phenyl]-3-(4-methylphenyl)urea]",> 5.70
3,"Cc1ccc(NC(=O)Nc2ccc(OC(F)F)cc2)cc1F [Compound 606, 1-[4-(difluoromethoxy)phenyl]-3-(3-fluoro-4-methylphenyl)urea]",> 5.70
4,"Cc1cc(NC(=O)Nc2ccc(OC(F)F)cc2)ccc1F [Compound 608, 1-[4-(difluoromethoxy)phenyl]-3-(4-fluoro-3-methylphenyl)urea]",> 5.70
5,"CCOC(=O)c1cccc(NC(=O)Nc2ccc(C)cc2)c1 [Compound 643, ethyl 3-({[(4-methylphenyl)amino]carbonyl}amino)benzoate]",> 5.70
6,"CC(C)Oc1cccc(NC(=O)Nc2ccc(OC(F)(F)F)cc2)c1 [Compound 536, 1-(3-isopropoxyphenyl)-3-[4-(trifluoromethoxy)phenyl]urea]",> 5.70
7,"Cc1cc(NC(=O)Nc2ccc(OC(F)F)cc2)ccc1Cl [Compound 612, 1-(4-chloro-3-methylphenyl)-3-[4-(difluoromethoxy)phenyl]urea]",> 5.70
8,"COC(=O)c1ccc(NC(=O)Nc2ccc(O)cc2)cc1 [Compound 747, methyl 4-({[(4-hydroxyphenyl)amino]carbonyl}amino)benzoate]",> 5.70
9,"CCCc1ccc(NC(=O)Nc2ccc([N+](=O)[O-])cc2)cc1 [Compound 529, 1-(4-nitrophenyl)-3-(4-propylphenyl)urea]",> 5.70
10,"O=C(Nc1ccc(OC(F)F)cc1)Nc1ccc(F)c(F)c1 [Compound 609, 1-[4-(difluoromethoxy)phenyl]-3-(3,4-difluorophenyl)urea]",> 5.70
11,"CN1CCN(S(=O)(=O)c2cccc(NC(=O)Nc3cccc(OC(F)F)c3)c2)CC1 [Compound 788, N-[3-(difluoromethoxy)phenyl]-N′-{3-[(4-methyl-1-piperazinyl)sulfonyl]phenyl}urea]",> 5.70
12,"CCOc1cccc(NC(=O)Nc2cccc(F)c2)c1 [Compound 355, 1-(3-ethoxyphenyl)-3-(3-fluorophenyl)urea]",> 5.70
13,"CCc1ccc(NC(=O)Nc2ccc(OCC#N)cc2)cc1 [Compound 489, N-[4-(cyanomethoxy)phenyl]-N′-(4-ethylphenyl)urea]",> 5.70
14,"CCc1ccc(NC(=O)Nc2ccc(F)c(F)c2)cc1 [Compound 441, 1-(3,4-difluorophenyl)-3-(4-ethylphenyl)urea]",> 5.70
15,"CCOC(=O)c1cccc(NC(=O)Nc2ccc(CC)cc2)c1 [Compound 646, ethyl 3-({[(4-ethylphenyl)amino]carbonyl}amino)benzoate]",> 5.70
16,"CCOC(=O)c1ccc(NC(=O)Nc2ccc(O)cc2)cc1 [Compound 748, ethyl 4-({[(4-hydroxyphenyl)amino]carbonyl}amino)benzoate]",> 5.70
17,"CCCc1ccc(NC(=O)Nc2ccc(OC(F)(F)F)cc2)cc1 [Compound 519, 1-(4-propylphenyl)-3-[4-(trifluoromethoxy)phenyl]urea]",> 5.70

# Further lines, results first:
row,pIC50,Compound
1,> 5.70,"N#CCOc1ccc(NC(=O)Nc2cc(F)cc(F)c2)cc1 [Compound 743, 1-[4-(cyanomethoxy)phenyl]-3-(3,5-difluorophenyl)urea]"
2,> 5.70,"CCOC(=O)c1cccc(NC(=O)Nc2ccc(OCC)cc2)c1 [Compound 664, ethyl 3-({[(4-ethoxyphenyl)amino]carbonyl}amino)benzoate]"
3,> 5.70,"O=C(Nc1ccc(OC(F)F)cc1)Nc1cccc(Br)c1 [Compound 520, 1-(3-bromophenyl)-3-[4-(difluoromethoxy)phenyl]urea]"
4,> 5.70,"CCc1ccc(NC(=O)Nc2cccc(CC)c2)cc1 [Compound 329, 1-(3-ethylphenyl)-3-(4-ethylphenyl)urea]"
5,> 5.70,"CCOC(=O)c1cccc(NC(=O)Nc2cccc(OCC)c2)c1 [Compound 661, ethyl 3-({[(3-ethoxyphenyl)amino]carbonyl}amino)benzoate]"
6,> 5.70,"O=C(Nc1ccc(OC(F)F)cc1)Nc1ccccn1 [Compound 631, 1-[4-(difluoromethoxy)phenyl]-3-pyridin-2-ylurea]"
7,> 5.70,"CCOC(=O)c1cccc(NC(=O)Nc2cccc(OC(C)C)c2)c1 [Compound 672, ethyl 3-({[(3-isopropoxyphenyl)amino]carbonyl}amino)benzoate]"
8,> 5.70,"Cc1ccc(NC(=O)Nc2ccc(OC(C)C)cc2)cc1C [Compound 691, 1-(3,4-dimethylphenyl)-3-(4-isopropoxyphenyl)urea]"
9,> 5.70,"CC(=O)c1ccc(NC(=O)Nc2ccc(CC#N)cc2)cc1 [Compound 505, 1-(4-acetylphenyl)-3-[4-(cyanomethyl)phenyl]urea]"
10,> 5.70,"N#CCOc1ccc(NC(=O)Nc2cccc(F)c2)cc1 [Compound 466, 1-[4-(cyanomethoxy)phenyl]-3-(3-fluorophenyl)urea]"
11,> 5.70,"Cc1ccc(NC(=O)Nc2ccc(OC(F)F)cc2)cc1Cl [Compound 611, 1-(3-chloro-4-methylphenyl)-3-[4-(difluoromethoxy)phenyl]urea]"
12,> 5.70,"CCCc1ccc(NC(=O)Nc2ccc(OC)cc2)cc1 [Compound 525, 1-(4-methoxyphenyl)-3-(4-propylphenyl)urea]"
13,> 5.70,"CCOc1ccc(NC(=O)Nc2ccc([N+](=O)[O-])cc2)cc1 [Compound 560, 1-(4-ethoxyphenyl)-3-(4-nitrophenyl)urea]"
14,> 5.70,"CCOc1ccc(NC(=O)Nc2ccc(C(=O)OC(C)C)cc2)cc1 [Compound 599, isopropyl 4-({[(4-ethoxyphenyl)amino]carbonyl}amino)benzoate]"
15,> 5.70,"Cc1cccc(NC(=O)Nc2ccc(OC(F)F)cc2)n1 [Compound 633, 1-[4-(difluoromethoxy)phenyl]-3-(6-methylpyridin-2-yl)urea]"
16,> 5.70,"CC(=O)c1cccc(NC(=O)Nc2ccc3c(c2)CCC3)c1 [Compound 455, 1-(3-acetylphenyl)-3-(2,3-dihydro-1H-inden-5-yl)urea]"
17,> 5.70,"CC(=O)c1ccc(NC(=O)Nc2cccc(Br)c2)cc1 [Compound 353, 1-(4-acetylphenyl)-3-(3-bromophenyl)urea]"
18,> 5.70,"CCOC(=O)c1ccc(NC(=O)Nc2cccc(Cl)c2)cc1 [Compound 499, ethyl 4-({[(3-chlorophenyl)amino]carbonyl}amino)benzoate]"

# Same assay, conditions: Table I; IC50 at CB1, GTP binding with 1 nM CP55,940; read-out: IC50
row,pIC50,Compound
1,> 5.70,"CCc1ccc(NC(=O)Nc2ccc(C)cc2)cc1 [Compound 42, N-(4-ethylphenyl)-N′-(4-methylphenyl)urea]"
2,> 5.70,"O=C(Nc1ccc(OC(F)F)cc1)Nc1ccc(OC(F)F)cc1 [Compound 4, N,N′-bis[4-(difluoromethoxy)phenyl]urea]"
3,> 5.70,"CCc1ccc(NC(=O)Nc2ccc(OC(F)F)c(OC)c2)cc1 [Compound 53, N-[4-(difluoromethoxy)-3-methoxyphenyl]-N′-(4-ethylphenyl)urea]"

# Same assay, conditions: Table II; IC50 at CB1, GTP binding with 1 nM CP55,940; read-out: IC50
row,Compound,pIC50
1,"N#Cc1cncc(-c2cccc(NC(=O)Nc3ccc(OC(F)F)cc3)c2)c1 [Compound 73, N-[3-(5-cyanopyridin-3-yl)phenyl]-N′-[4-(difluoromethoxy)phenyl]urea]",> 5.70
2,"O=C(Nc1ccc(OC(F)F)cc1)Nc1cc(Cl)cc(Cl)c1 [Compound 93, N-(3,5-dichlorophenyl)-N′-[4-(difluoromethoxy)phenyl]urea]",> 5.70
3,"Cc1ccc(NC(=O)Nc2cccc(F)c2)cc1 [Compound 173, N-(3-fluorophenyl)-N′-(4-methylphenyl)urea]",> 5.70
4,"O=C(Nc1ccc(OC(F)F)cc1)Nc1cccc(-c2ccc(C(F)(F)F)cn2)c1 [Compound 66, N-[4-(difluoromethoxy)phenyl]-N′-{3-[5-(trifluoromethyl)pyridin-2-yl]phenyl}urea]",> 5.70
5,"CCCCc1ccc(NC(=O)Nc2cccc(C)c2)cc1 [Compound 155, N-(4-butylphenyl)-N′-(3-methylphenyl)urea]",> 5.70
6,"Cc1ccnc(NC(=O)Nc2ccc(OC(F)F)cc2)c1 [Compound 151, N-[4-(difluoromethoxy)phenyl]-N′-(4-methylpyridin-2-yl)urea]",> 5.70
7,"Cc1ccc(NC(=O)Nc2cc3ccccc3c(Br)n2)cc1 [Compound 170, N-(1-bromoisoquinolin-3-yl)-N′-(4-methylphenyl)urea]",> 5.70
8,"CCOc1cccc(NC(=O)Nc2cccc(Cl)c2)c1 [Compound 232, N-(3-chlorophenyl)-N′-(3-ethoxyphenyl)urea]",> 5.70

# Second part, the molecule after the results:
row,pIC50,Compound
1,> 5.70,"CCOc1ccc(NC(=O)Nc2cccc(C)c2)cc1 [Compound 158, N-(4-ethoxyphenyl)-N′-(3-methylphenyl)urea]"
2,> 5.70,"O=C(Nc1ccc(OC(F)F)cc1)Nc1ccc(N2CCCCC2)cc1 [Compound 105, N-[4-(difluoromethoxy)phenyl]-N′-(4-piperidin-1-ylphenyl)urea]"
3,> 5.70,"CC(C)c1ccc(NC(=O)Nc2cccc(C#N)c2)cc1 [Compound 194, N-(3-cyanophenyl)-N′-(4-isopropylphenyl)urea]"
4,> 5.70,"Cc1ccc(NC(=O)Nc2ccc(N3CCCCC3)cc2)cc1 [Compound 169, N-(4-methylphenyl)-N′-(4-piperidin-1-ylphenyl)urea]"
5,> 5.70,"Cc1cccc(NC(=O)Nc2ccc(N3CCOCC3)c(Cl)c2)c1 [Compound 162, N-(3-chloro-4-morpholin-4-ylphenyl)-N′-(3-methylphenyl)urea]"
6,> 5.70,"CC(C)Oc1ccc(NC(=O)Nc2ccc(C#N)cc2)cc1 [Compound 279, N-(4-cyanophenyl)-N′-(4-isopropoxyphenyl)urea]"
7,> 5.70,"O=C(Nc1ccc(OC(F)F)cc1)Nc1ccc(Br)nc1 [Compound 114, N-(6-bromopyridin-3-yl)-N′-[4-(difluoromethoxy)phenyl]urea]"
